Data set [1] in a line: UV-vis absorption spectra of the probe on addition of ClO-. The conditions noted are these: aqueous solution, probe 10 μM and 5 μM, ClO- added.
The nature of data set [2]: Fluorescence titration of the probe with ClO-. The conditions noted are these: excitation 440 nm.
Data set [3] can be described thus: Fluorescence selectivity of the probe for ClO- over other ions/species.
Data set [4] relates to MRC-5 cells (人胚肺细胞(MRC-5)). Nature of the data set: Fluorescence bioimaging of ClO- in MRC-5 cells. It is filed as cell-based, human.
The subject of data set [5] is zebrafish (斑马鱼). Nature of the data set: Fluorescence bioimaging of ClO- in zebrafish. It is filed as in vivo.

For the compound `O=C1NC(=S)NC(=O)C1=Cc1ccc2cc(O)ccc2c1` [小分子探针], in data set [1], the “absorption band at 440 nm on addition of ClO-” value is on record as “逐渐减少” and the “new absorption peak after addition of ClO-” value stood at 515 nm. The compound also showed a maximum emission in data set [2] (probe 5 μM in water with ClO-) of 535 nm. In addition, the “fluorescence intensity as a function of ClO- concentration” value in data set [2] (probe 5 μM in water, 400-700 nm) is reported as “随ClO-浓度增加而增强”. Besides, the “fluorescence change with anions/species other than ClO-” value in data set [3] (probe 2 μM in EtOH-H2O (v/v=1:10), 1.0 eq SO3 2-, NO, 1O2, ·OH, PBO·, TBHP, DBTP, Cys, GSH, H2O2) was “没有产生明显变化”. Besides, the “fluorescence intensity after addition of ClO-” value in data set [3] (probe 2 μM in EtOH-H2O (v/v=1:10), ClO- 1.0 eq) was “明显”. The “selectivity for ClO-” value in data set [3] (probe 2 μM in EtOH-H2O (v/v=1:10), anions 1.0 eq) was “高选择性”. Besides, the “fluorescence change with other ions” value in data set [3] (probe mixed with other ions (not hypochlorite)) is listed as “荧光基本上不发生变化”. Besides, in data set [3] (probe with hypochlorite ion), the “fluorescence intensity on reaction with hypochlorite ion” value was “荧光强度变强”. For the same compound, the “fluorescence signal in cells” value in data set [4] (MRC-5 cells incubated with free probe, without added ClO-) is “观察到可见荧光信号”. In addition, the “fluorescence intensity in the red channel” value in data set [4] (MRC-5 cells incubated with probe 20 min, then ClO- 6.0 μM, observed immediately) is listed as “显着荧光强度”. Further, the “red fluorescence in head and abdomen” value in data set [5] (5-day-old zebrafish pretreated with probe, washed three times, then ClO- 6.0 μM) is listed as “显着的红色荧光”. For the same compound, the “red fluorescence in the abdomen” value in data set [5] (5-day-old zebrafish, free probe 2.0 μM, 20 min, without added ClO-) is “弱而可见的 红色荧光”. Also, the tissue penetration ability entry in data set [5] (zebrafish) is given as “高组织穿透能力”.

For the origin of these results see CN111004186A, “一种小分子荧光探针及其制备方法与应用” (Wenzhou Medical University, priority 2019, dated 2020).
